Results as given in patent US6534035B1, “Methods of inhibiting clot formation” (President and Fellows of Harvard College, priority 1998, dated 2003).
Peptide text beside a SMILES is read from it. * marks the point of attachment. Biotin = O=C1N[C@H]2[C@H](CS[C@H]2CCCCC(=O)*)N1

Target: T1, guinea pig tissue transglutaminase (Cavia cutleri, UniProt P08587)
T1 sequence (P08587 1-690): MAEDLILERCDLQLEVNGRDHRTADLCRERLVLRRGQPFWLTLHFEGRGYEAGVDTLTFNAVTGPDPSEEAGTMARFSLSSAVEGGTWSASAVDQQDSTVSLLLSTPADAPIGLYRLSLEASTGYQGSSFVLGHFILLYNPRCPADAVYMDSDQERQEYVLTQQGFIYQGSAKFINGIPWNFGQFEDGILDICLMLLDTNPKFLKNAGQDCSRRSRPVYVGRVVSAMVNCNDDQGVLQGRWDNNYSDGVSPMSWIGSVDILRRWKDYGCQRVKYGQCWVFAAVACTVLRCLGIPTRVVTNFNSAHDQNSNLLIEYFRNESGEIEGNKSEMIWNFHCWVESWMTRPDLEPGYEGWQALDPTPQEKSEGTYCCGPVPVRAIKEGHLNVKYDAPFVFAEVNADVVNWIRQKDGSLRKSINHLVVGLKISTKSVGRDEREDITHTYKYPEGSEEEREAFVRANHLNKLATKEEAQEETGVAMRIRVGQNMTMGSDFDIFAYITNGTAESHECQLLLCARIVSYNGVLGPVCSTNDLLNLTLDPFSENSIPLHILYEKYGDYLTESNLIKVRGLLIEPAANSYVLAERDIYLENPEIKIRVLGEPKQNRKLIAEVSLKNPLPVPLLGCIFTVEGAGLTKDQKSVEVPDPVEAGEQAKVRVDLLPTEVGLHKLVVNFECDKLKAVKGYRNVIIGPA
Assay: Crosslinking of α2AP13-24 into fibrin by tissue transglutaminase
Assay type: biochemical
Details: purified tissue transglutaminase (100 nM) added to FXIIIa-deficient fibrinogen
Method: Fibrin clots (50 μl) were prepared in duplicate by mixing FXIII-free fibrinogen (2 mg/ml final), α2AP13-24 (SEQ ID NO:2; 0.5 mM final), CaCl2 (2 mM final), human plasma FXIII (100 nM/L final) and guinea pig tissue transglutaminase (100 nM/L final) and thrombin (1 U/ml final) and incubating at 37° C. for 2 hours. The crosslinking of α2AP13-24 was detected as described above.

`CC(C)C[C@H](NC(=O)[C@H](CC(C)C)NC(=O)[C@@H](NC(=O)[C@H](CC(C)C)NC(=O)[C@@H]1CCCN1C(=O)[C@H](CO)NC(=O)[C@@H](NC(=O)[C@H](CCC(N)=O)NC(=O)[C@H](CCC(=O)O)NC(=O)[C@H](CCC(N)=O)NC(=O)[C@@H](N)CC(N)=O)C(C)C)[C@@H](C)O)C(=O)N[C@@H](CCCCNC(=O)CCCC[C@@H]1SC[C@@H]2NC(=O)N[C@@H]21)C(=O)O` [α2AP13-24, NQEQVSPLTLLK] (H-NQEQVSPLTLLK(Biotin)-OH) was tested. Which “crosslinking of peptide to fibrin” value did it give?
The value was “slight increase in crosslinking”.
